Here are results for 2 compounds from patent US7632864B2, “Gabapentin analogues and process thereof” (Hikal Ltd., priority 2005, dated 2009).

Series [1] relates to alpha 2 detla sub unit derived from porcine brain tissue. Conditions: radio ligand binding, compound without stereochemistry, value from U.S. Pat. No. 6,103,932; cited from earlier work.
The nature of series [2]: water solubility (precipitation of free amino acid at pH 7). The format is physicochemical. Conditions: compared to the other gabapentin analogues. Here is the method:
The process for the preparation of the cis and trans isomer of 4-t-butylgabapentin has been achieved, as outlined in Fig. I. 4-t-Butyl-cyclohexanone (I) was treated with ethylcyano acetate and ammonia in methanol to yield ammonium salt of dicyanoimide (2). Hydrolysis of (2) with hot sulfuric acid afforded the diacid (3) which was converted to the anhydride (4). (4) treated with aqueous ammonia to give the mono-amide (5) as a mixture containing approximately equal proportions of stereoisomers. Reaction of (5) with sodium hypobromite solution led to the formation of lactam (6) as a mixture of stereoisomers [proton NMR (7) and its isomer with NCH2 axial in the ratio of 3:2] from which one of the isomer could be crystallized out in pure form from methanol-hexane, mp 176-7° C. and its structure identified as (7) by NMR and single crystal X-ray analysis (Hydrolysis of lactam (6) with hot concentrated HCl gave a mixture of isomers of 4-t-butyl gabapentin hydrochloride (8). Crystallization of (8) from water afforded in pure form, mp 146-147° C., the isomer hemihydrate (9) with aminomethyl group in the anxial position. […]

On to `CC(C)(C)C1CCC(CN)(CC(=O)O)CC1` (stereo not shown) [4-t-butyl gabapentin], for which the melting point was in the range of 176 to 180 °C. In series [1], the IC50 is 200 µM.
With `CC(C)(C)C1CCC(CN)(CC(=O)O)CC1` (stereo not shown) [Compound 10, 4-t-butylgabapentin], the melting point lay within 182 to 183 °C. Also, the water solubility result in series [2] is recorded as “much poorer water solubility”.
